Data: patent publication US20080095856A1, “Encapsulated Nanoparticles for Drug Delivery” (priority 2006, published 2008)
Peptide text beside a SMILES is read from it. * marks the point of attachment. X1 = O=C(O)[C@H]1CSC(c2nc3ccc(N*)cc3s2)=N1

Legend:
[1] = DPPH radical scavenger assay of antioxidative activity before and after SAS processing; format: biochemical; conditions: maximum UV absorbance before and after addition of quercetin
Source text: The antioxidative activity of quercetin has not been diminished by this supercritical fluid process for nanoparticle formation. A radical scavenger DPPH (2,2,-diphenyl-1-picrylhydrazyl) was used to measure the EC50 value of DPPH at maximum UV absorbance before and after addition of quercetin.
Quercetin. Quercetin has been encapsulated with PLA (MW 50,000 and 100,000) using the following process parameters: T=40 C, P=100 bar, CO2 flow rate 50 g/min, 5:100 quercetin:polymer ratio using methanol as the cosolvent. Results can be seen in FIGS. 4A-4C. […] A radical scavenger DPPH (2,2,-diphenyl-1-picrylhydrazyl) was used to measure the EC50 value of DPPH at maximum UV absorbance before and after addition of quercetin.

[2] = Biodistribution of SKLQ-aminoluciferin by BLI in L2G85 mice; format: in vivo
Source text: PSA is a chymotrypsin-like enzyme which specifically cleaves the C-terminus of glutamine (Q) in the peptide sequence, SKLQ-aminoluciferin. Prodrugs have been used to take advantage of this specificity of PSA. […] Where the peptides or prodrugs are encapsulated with polymer, the current shortcomings in delivery of tumor-specific peptides is overcome. The peptides or drugs can be encapsulated with a protective polymer coating, and the payload released in the vascularized tumor regions. This approach prevents non-specific distribution of the drug and ensures stability of the peptide/drug, and utilizes the active proteases that are specific to a disease state to activate a prodrug at the region of interest.
The strategies developed for these studies are utilized in the study of biodistribution of luciferin nanoparticles. The nanoparticles are also tested using a xenograft model of prostate cancer. Appropriate cell lines have been developed for conducting experiments to study human prostate cancer models in animals. […] Both LNCaP and PC3M cells have successfully been implanted into SCID mice, and their growth kinetics have been successfully quantified using BLI. Luciferase present in the cells is used as the read out for delivery of luciferin and can also be used as for assessing tumor burden when we transition to testing chemotherapeutic agents. […]

| Structure (SMILES) | EC50 value of DPPH, before vs after SAS processing [1] | distribution in the animal ([2]; L2G85 mice) | stability in the body ([2]; in vivo, acted upon by various enzymes) |
| --- | --- | --- | --- |
| O=c1c(O)c(-c2ccc(O)c(O)c2)oc2cc(O)cc(O)c12 [quercetin] | the same before and after SAS processing | – | – |
| CC(C)C[C@H](NC(=O)[C@H](CCCCN)NC(=O)[C@@H](N)CO)C(=O)N[C@@H](CCC(N)=O)C(=O)Nc1ccc2nc(C3=N[C@@H](C(=O)O)CS3)sc2c1 [SKLQ-aminoluciferin] (H-SKLQ-X1; N-terminus and C-terminus assumed) | – | distributed non-specifically throughout the animal | unstable in the body |
